Tests used:
[1] = parameters: method as in PMID 35494787; details: concentration 17.5 μM; ref [87]; cited from earlier work
[2] = test system: NO production in LPS-induced RAW 264.7 cells; assay: Nitric oxide assay (Griess reagent, nitrite); type: cell-based; details: PDENs 5, 10, 20 μg/mL or dexamethasone 1 μg/ml for 24 h, then LPS 50 ng/mL for 6 h
Method: RAW 264.7 cells were cultured in 96-well plates, with a density of 1 × 10^4 cells per well and incubated for 24 hours. Following this, they were exposed to various concentrations of PDENs (0, 5, 10, and 20 μg/ml) and dexamethasone (1 μg/ml) (Sigma-Aldrich, USA) for 24 hours. Thereafter, the cells were treated with LPS (50 ng/mL) (Sigma-Aldrich, USA) for an additional 6 hours. To measure the nitric oxide in the culture media, we utilized the Protocol from Griess Reagent Kit for Nitrite Determination (G-7921) (Thermo Fisher Scientific, USA). Briefly, 50 microliters of cell culture medium from each treatment were mixed with Griess reagent (1:1) and incubated for 15 minutes in the dark. The samples were measured at a wavelength of 540 nm using a microplate reader Bio-Rad iMark.

## Cc1cc(C(C)(C)C)c(O)c(C(C)(C)C)c1 [butylated hydroxytoluene]
[1]
  radical scavenging activity: 58.4%

## CC1=C(O)C(=O)C(O)CO1 (stereo not drawn) [DDMP, 2,3-dihydro-3,5-dihydroxy-6-methyl-4H-pyran-4-one]
[1]
  radical scavenging activity: 81.1%

## C[C@@H]1C[C@H]2[C@@H]3CCC4=CC(=O)C=C[C@]4(C)[C@@]3(F)[C@@H](O)C[C@]2(C)[C@@]1(O)C(=O)CO [dexamethasone]
[2]
  NO production versus LPS-induced cells: significantly reduce NO production

— article PMC11221653, “Isolation and characterization of plant-derived exosome-like nanoparticles from Carica papaya L. fruit and their potential as anti-inflammatory agent” (PLOS ONE, 2024)
